From article PMC10269165 (Antimicrobial Agents and Chemotherapy, 2023)

Columns and labels:
HcPMT1 = HcPMT1 (Haemonchus contortus, UniProt U5HK46); assay: biochemical; type: biochemical;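 as to Selectivity index (SI) HcPMT1: cytotoxicity IC50 measured in HCT-8 cells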
Procedure: (§1) The chemical compounds were obtained from the National Cancer Institute/Developmental Therapeutics Program Open Chemical Repository. […] Compounds were individually reconstituted in molecular biology grade dimethyl sulfoxide (DMSO) from Sigma-Aldrich to a stock concentration of 10 mM and stored at −20°C until use. Initial screening was conducted using recombinant HcPMT1 protein as enzyme in the methyltransferase assay, with test compounds at a final concentration of 40 μM. […] To the positive reaction mixture, instead of test compound, an equivalent volume of DMSO was added. In the negative-control reaction mixture, instead of HcPMT1 and test compound, equivalent volumes of 1× transferase buffer and DMSO, respectively, were added. Detection buffer (100 μL) containing fluorescence substrate was added into each reaction mixture. The reactions were prepared in triplicate wells in 96-well plates. The plates were covered in aluminum foil and incubated at room temperature with agitation for 30 min, followed by reading the fluorescence at 380EX/520EM. The mean percent inhibition (MPI) of the test compound on enzymatic activity was calculated using the following formula: MPI = ΔRFUpositive control − ΔRFUcompounds/ΔRFUpositive control × 100, where the positive control is a reaction without compound but with recombinant PMT protein and a volume of DMSO equivalent to that of compound used in test reactions; the negative control is the reaction without protein and compounds, but with volumes of dialysis buffer and DMSO equivalent to protein and compound added in the test reaction mixtures, respectively; ΔRFUpositive control represents the absolute relative fluorescence units (RFU) for the positive control, which equals RFUpositive control – RFUnegative control; and ΔRFUcompounds represents the absolute RFU value for the sample with the compounds, which equals RFUcompounds – RFUnegative control.
(§2) The enzymatic assay was set up as described above, with the respective PMT protein as enzyme.

TcPMT = TcPMT (Toxocara canis, UniProt A0A0B2VTW9); assay: biochemical; type: biochemical;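 as to Selectivity index (SI) TcPMT: cytotoxicity IC50 measured in HCT-8 cells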
Procedure: as §1, §2

DvPMT1 = DvPMT1 (Dictyocaulus viviparus, UniProt A0A0D8Y714); assay: biochemical; type: biochemical;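 as to Selectivity index (SI) DvPMT1: cytotoxicity IC50 measured in HCT-8 cells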
Procedure: as §1, §2

OdPMT = OdPMT (Oesophagostomum dentatum, UniProt A0A0B1TAL6); assay: biochemical; type: biochemical;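 as to Selectivity index (SI) OdPMT: cytotoxicity IC50 measured in HCT-8 cells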
Procedure: as §1, §2

AcPMT1 = AcPMT1 (Ancylostoma duodenale, UniProt A0A0C2DEB6); assay: biochemical; type: biochemical
Procedure: as §1, §2

[1] = tested on: H. contortus, susceptible (TxPh-2011-S) and MDR (UGA MDR 2020) isolates; assay: Larval development assay (LDA); type: cell-based, Haemonchus contortus
[2] = tested on: PMT-complemented mutant yeast; assay: Growth inhibition of complemented yeast (statement on PMT-complemented strains together); type: cell-based, Saccharomyces cerevisiae; conditions: various concentrations
Procedure: To determine the effect of PMT inhibitors on the growth of PMT- and LacZ-complemented pem1Δpem2Δ S. cerevisiae, the yeast cells were first starved of choline as described above, and the cells were diluted to an OD600 of ~0.6. The PMT-complemented yeast cells were cultured in SG medium (3.4g/L yeast nitrogen base without amino acids, 2% galactose, 30 mg/L histidine, 100 mg/L leucine, 100 mg/L adenine, and 50 mg/L tryptophan) supplemented with 1 mM ethanolamine hydrochloride, while the LacZ-complemented yeast cells were cultured in SG medium supplemented with 1 mM choline chloride. Compounds that depicted cross-inhibitory activity against PMT proteins in vitro were added at various concentrations to the cultures. As a negative control, DMSO (at a final concentration not exceeding 2% [vol/vol]) was added to yeast cultures designated control cultures. The cultures were incubated at 30°C with shaking at 275 rpm for 4 days. On a daily basis during the course of culture, 200-μL portions of culture aliquots were taken, and their OD600s were measured using a microplate reader. In preliminary work, we had observed that the growth of PMT- and LacZ-complemented pem1Δpem2Δ S. cerevisiae plateaued at 3 to 4 days of culture. Therefore, to determine the inhibitory effect of nematode PMT inhibitors on the growth of PMT- and LacZ-complemented pem1Δpem2Δ S. cerevisiae, measurements taken on day 3 were used. The results were presented as percentage of growth rate using the following formula: PGR = growth rate (plus inhibitor)/growth rate (minus inhibitor) × 100 where the percent growth rate (PGR) is the growth rate of inhibitor-treated PMT- or LacZ- complemented Pem1Δpem2Δ S. cerevisiae, considering the growth rate of untreated PMT- or LacZ- complemented Pem1Δpem2Δ S. cerevisiae is 100%; the growth rate = ΔA600^Day 3/ΔA600^Day 0; ΔA600^Day 0 is the absolute value of A600 of PMT- or LacZ- complemented pem1Δ/pem2Δ S. cerevisiae at day 0, which equals the A600 of the culture minus the A600 of the growth medium only; ΔA600^Day 3 is the absolute value of the A600 of PMT- or LacZ complemented pem1Δ/pem2Δ S. cerevisiae at day 3, which equals the A600 of the culture at day 3 minus the A600 of growth medium only; the growth rate (plus inhibitor) is the growth rate of PMT- or -LacZ complemented pem1Δpem2Δ S. cerevisiae in the presence of test compound; and the growth rate (minus inhibitor) is the growth rate of the PMT- or LacZ complemented pem1Δ/pem2Δ S. cerevisiae in the absence of test compound, but with a volume of DMSO equal to that of compound added in the treated culture. The dose-response curves were generated with GraphPad Prism software and IC50 concentrations of the compounds in PMT- and LacZ-complemented yeast cells derived.

[3] = tested on: AsPMT-complemented pem1Δ/pem2Δ S. cerevisiae; assay: Growth inhibition of complemented yeast; type: cell-based, Saccharomyces cerevisiae; conditions: medium with ethanolamine, no choline, day 3; read-out: Mean growth inhibition EC50 ± SEM on complemented yeast, AsPMT
How it was run: (§3)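 Choline-starved cells at OD600 ~0.6 were grown in SG galactose medium with 1 mM ethanolamine and compound at various concentrations, 30°C with shaking for 4 days. Growth rate used day-3 over day-0 blank-corrected A600, expressed relative to DMSO-matched controls; IC50 from dose-response curves.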

[4] = tested on: AcPMT1+2-complemented pem1Δ/pem2Δ S. cerevisiae; assay: Growth inhibition of complemented yeast; type: cell-based, Saccharomyces cerevisiae; conditions: medium with ethanolamine, no choline, day 3; read-out: Mean growth inhibition EC50 ± SEM on complemented yeast, AcPMT1+2
How it was run: as §3

AsPMT = AsPMT (Ascaris suum, UniProt F1L4B9); type: biochemical;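 as to Selectivity index (SI) AsPMT: cytotoxicity IC50 measured in HCT-8 cells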
Procedure: as §1, §2

[5] = tested on: MDR isolate of H. contortus, exsheathed L3 larvae; assay: Larval motility assay (LMA), Worminator; type: cell-based, Haemonchus contortus
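For Selectivity index (SI) AcPMT1 in this document: cytotoxicity IC50 measured in HCT-8 cells.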

AsPMT, sequence (F1L4B9 entry or part of it): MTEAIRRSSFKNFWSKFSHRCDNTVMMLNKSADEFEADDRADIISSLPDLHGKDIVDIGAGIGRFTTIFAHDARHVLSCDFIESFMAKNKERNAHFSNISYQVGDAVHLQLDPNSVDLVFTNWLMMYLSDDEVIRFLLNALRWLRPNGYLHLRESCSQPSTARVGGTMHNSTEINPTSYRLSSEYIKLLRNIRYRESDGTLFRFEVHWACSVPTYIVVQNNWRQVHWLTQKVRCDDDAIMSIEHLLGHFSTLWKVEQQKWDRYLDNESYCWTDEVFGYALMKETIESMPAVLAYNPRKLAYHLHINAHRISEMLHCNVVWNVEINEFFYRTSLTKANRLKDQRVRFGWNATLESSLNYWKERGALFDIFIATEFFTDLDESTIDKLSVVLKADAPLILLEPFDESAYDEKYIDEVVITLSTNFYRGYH
OdPMT, sequence (A0A0B1TAL6 entry or part of it): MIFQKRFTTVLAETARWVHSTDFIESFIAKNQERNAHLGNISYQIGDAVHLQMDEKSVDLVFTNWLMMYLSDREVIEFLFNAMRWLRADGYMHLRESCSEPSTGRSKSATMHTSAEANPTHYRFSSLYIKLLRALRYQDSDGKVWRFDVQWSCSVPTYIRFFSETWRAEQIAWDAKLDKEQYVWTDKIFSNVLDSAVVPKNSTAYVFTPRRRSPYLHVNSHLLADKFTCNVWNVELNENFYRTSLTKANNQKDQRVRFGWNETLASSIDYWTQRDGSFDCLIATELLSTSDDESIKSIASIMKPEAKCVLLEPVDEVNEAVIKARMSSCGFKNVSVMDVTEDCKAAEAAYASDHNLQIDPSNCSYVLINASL
HcPMT1, sequence (U5HK46 entry or part of it): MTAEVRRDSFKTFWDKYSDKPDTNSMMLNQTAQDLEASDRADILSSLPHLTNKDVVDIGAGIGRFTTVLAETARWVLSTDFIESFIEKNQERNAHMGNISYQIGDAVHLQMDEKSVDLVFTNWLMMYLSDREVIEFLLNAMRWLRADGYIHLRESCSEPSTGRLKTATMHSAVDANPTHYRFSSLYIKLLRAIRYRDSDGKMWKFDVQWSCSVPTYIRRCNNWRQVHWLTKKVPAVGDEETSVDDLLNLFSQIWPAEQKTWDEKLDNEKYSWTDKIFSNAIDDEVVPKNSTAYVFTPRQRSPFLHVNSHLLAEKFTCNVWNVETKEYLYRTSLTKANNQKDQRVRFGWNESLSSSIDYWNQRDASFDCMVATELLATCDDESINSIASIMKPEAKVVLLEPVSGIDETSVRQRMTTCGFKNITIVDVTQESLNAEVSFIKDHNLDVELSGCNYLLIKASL
TcPMT, sequence (A0A0B2VTW9 entry or part of it): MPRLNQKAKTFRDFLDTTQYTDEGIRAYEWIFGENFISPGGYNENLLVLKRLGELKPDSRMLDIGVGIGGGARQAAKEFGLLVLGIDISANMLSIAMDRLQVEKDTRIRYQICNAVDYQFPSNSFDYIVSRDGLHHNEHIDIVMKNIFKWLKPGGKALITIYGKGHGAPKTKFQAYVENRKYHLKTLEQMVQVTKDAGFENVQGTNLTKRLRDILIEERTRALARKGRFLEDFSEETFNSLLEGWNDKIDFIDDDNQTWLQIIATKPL
DvPMT1, sequence (A0A0D8Y714 entry or part of it): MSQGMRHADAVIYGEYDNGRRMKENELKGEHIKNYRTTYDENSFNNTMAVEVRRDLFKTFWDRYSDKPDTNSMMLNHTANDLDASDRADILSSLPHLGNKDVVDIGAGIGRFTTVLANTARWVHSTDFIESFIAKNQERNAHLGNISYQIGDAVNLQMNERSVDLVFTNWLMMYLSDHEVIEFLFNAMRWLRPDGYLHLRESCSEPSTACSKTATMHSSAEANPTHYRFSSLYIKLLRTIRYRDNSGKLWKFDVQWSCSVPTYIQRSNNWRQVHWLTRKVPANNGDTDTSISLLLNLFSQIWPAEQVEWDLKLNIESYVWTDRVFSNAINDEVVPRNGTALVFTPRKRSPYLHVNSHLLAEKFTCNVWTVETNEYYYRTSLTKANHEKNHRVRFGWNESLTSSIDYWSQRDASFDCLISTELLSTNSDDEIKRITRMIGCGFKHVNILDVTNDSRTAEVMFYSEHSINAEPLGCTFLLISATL
AcPMT1, sequence (A0A0C2DEB6 entry or part of it): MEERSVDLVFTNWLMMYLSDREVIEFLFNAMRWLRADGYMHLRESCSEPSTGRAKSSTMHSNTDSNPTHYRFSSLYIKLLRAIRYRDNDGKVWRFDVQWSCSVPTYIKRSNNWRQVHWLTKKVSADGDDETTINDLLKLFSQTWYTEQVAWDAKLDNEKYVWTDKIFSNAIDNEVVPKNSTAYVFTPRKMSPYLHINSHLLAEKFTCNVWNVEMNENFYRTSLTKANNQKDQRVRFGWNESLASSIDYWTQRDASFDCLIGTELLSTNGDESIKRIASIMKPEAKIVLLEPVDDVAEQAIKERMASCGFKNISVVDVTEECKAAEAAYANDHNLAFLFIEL

## CO[C@@H]1/C=C\O[C@]2(C)Oc3c(C)c(O)c4c(O)c(c(CN(C)C)c(O)c4c3C2=O)NC(=O)/C(C)=C\C=C[C@@H](C)[C@@H](O)[C@H](C)[C@@H](O)[C@H](C)[C@H](OC(C)=O)[C@@H]1C [NSC145612]
HcPMT1; IC50^Cytotoxicity/IC50^Enzyme
  Selectivity index (SI) HcPMT1: 10.83
HcPMT1; read-out: Mean IC50 ± SEM, Enzyme HcPMT1
  IC50: 27.9 ± 1.57 µM
TcPMT; IC50^Cytotoxicity/IC50^Enzyme
  Selectivity index (SI) TcPMT: 2.77
TcPMT; read-out: Mean IC50 ± SEM, Enzyme TcPMT
  IC50: 109 ± 12.6 µM
DvPMT1; IC50^Cytotoxicity/IC50^Enzyme
  Selectivity index (SI) DvPMT1: 5.49
DvPMT1; read-out: Mean IC50 ± SEM, Enzyme DvPMT1
  IC50: 55.1 ± 4.46 µM
OdPMT; IC50^Cytotoxicity/IC50^Enzyme
  Selectivity index (SI) OdPMT: 9.11
OdPMT; read-out: Mean IC50 ± SEM, Enzyme OdPMT
  IC50: 33.2 ± 2.26 µM
AcPMT1; IC50^Cytotoxicity/IC50^Enzyme
  Selectivity index (SI) AcPMT1: 11.05
AcPMT1; read-out: Mean IC50 ± SEM, Enzyme AcPMT1
  IC50: 27.4 ± 2.92 µM
[1]; LDA dose-response curve
  Hill slope: 0.79
[1]; drug-susceptible and MDR isolates
  anthelmintic activity in LDA: activity in the lower micromolar range
[2]
  effect on the growth of PMT-complemented mutant yeast: concentration-dependent inhibitory effect
[3]
  EC50: 28.9 ± 4.38 µM
[4]
  EC50: 29.3 ± 2.54 µM
AsPMT; IC50^Cytotoxicity/IC50^Enzyme
  Selectivity index (SI) AsPMT: 6.67
AsPMT; read-out: Mean IC50 ± SEM, Enzyme AsPMT
  IC50: 45.3 ± 1.71 µM
[5]; 62.5 µM, 1 hour
  Percent inhibition of larval motility: 16.7%
[5]; 62.5 µM, 72 hours
  Percent inhibition of larval motility: 18.3%
[5]; 62.5 µM, 96 hours
  Percent inhibition of larval motility: 3.8%
[5]; 62.5 µM, Initial
  Percent inhibition of larval motility: 10.1%
[5]; 250 µM, 4 hours
  Percent inhibition of larval motility: 47.0%
[5]; 250 µM, 72 hours
  Percent inhibition of larval motility: 9.2%
